Reference: PMC3025057 (Experimental parasitology, 2010)

Target: Trypanosoma brucei hexokinase 1 (TbHK1) (Trypanosoma brucei, UniProt Q38C42)
Assay: G6PDH-coupled hexokinase assay with recombinant enzyme
Format: biochemical

O=c1c(O)c(-c2ccc(O)c(O)c2)oc2cc(O)cc(O)c12 [QCN, 3,3′,4′,5,7-pentahydroxyflavone]
Ki: 2900 ± 900 nM
